This is an account of results in patent publication EP1705169A2, “Triphenylalkene derivatives and their use as selective estrogen receptor modulators” (priority 1999, dated 2001).

One series relates to immature female rats. The series is described as follows: 3 day uterotropic assay in immature female rats (given alone and with estradiol). Type of series: in vivo. The following applies: for Estrogen antagonism (% inhibition of estradiol) Given with estradiol / Uterotropic effect (% of estradiol) Given without estradiol: 3 days, immature female rats. As for the experimental part: The values are given at two dose levels, low i.e. 3―5 mg/kg and high i.e. 10―50 mg/kg. Estrogenic activity can be estimated also after a 4 weeks' treatment of ovariectomized rats based on the uterine size.

The next series concerns MCF-7 cells. The series is described as follows: cells. As to conditions: for inhibition at 1 µM / Emax / cytotoxicity at 10 µM: Homo sapiens, MCF7, 96 h; for inhibition at 1 µM: read-out: Antagonism at 1 µM (% of full antagonism); for Emax: read-out: Maximal Agonism (% of E2); for cytotoxicity at 10 µM: toxicity at 10 µmol/l, 100 = all cells dead; for Kill of MCF-7 cells (in words): highest investigated concentration (10 µM). As for the experimental part: For experiments involving hormone or anti-hormone treatment, the cells in exponential growth phase were precultivated in the absence of estradiol for one day. […] After the incubation period the medium was removed. The exposure to study drugs was started immediately by adding fresh medium with 5 % stripped serum. Half of the cells were grown with estradiol, half without estradiol. Study compounds (dissolved in ethanol in 0.01 M concentration and diluted with the growth medium as appropriate) were added. The final concentrations of the compounds were 1,10, and 100 nM, and 1 and 10 µM. The cells were incubated for four days.
This method allows evaluation of estrogenicity based on the ability of the compounds to stimulate the growth of the estrogen-dependent cells in the absence of estradiol. Estrogenicity was estimated by comparing the maximal growth stimulus (at any concentration) of study compound as per cent from growth stimulus by estradiol (100 % stimulus). […] At high concentrations molecules may also show toxicity. Toxicity was estimated as the fraction of dead cells (i.e. 100 % means that all cells have died during the exposure).

In series [1] the test system is ovariectomized rats. The series is described as follows: Strength of femoral neck (cantilever bending test) in ovariectomized rats after 4 weeks dosing. Format: in vivo. As to conditions: 3.0 mg/kg p.o., beginning one week after ovariectomy (Sham 86.7 ± 10.4; OVX 68.4 ± 8.5), * = p < 0.05 vs ovariectomized. The text has this:
(§1) Compounds were given p.o. to female rats for 4 or 5 weeks daily. At the end a blood sample was taken. Serum was separated by centrifugation and frozen until analyzed for total amount of cholesterol. Bone samples were taken from vertebra and tibia. Physical strength of the bones was studied as described by Peng et al, 1994. The assessments of the bone included: • Ash weight of tibial epiphyses • Epiphyses of one tibia was carefully prepared and burned. Samples were burned to remove water and organic material. Ash weight relates to the mineral content of the bone. In addition, bone samples were taken to study the histomorphometry. In some cases the bone formation was studied by injecting tetracycline (50 mg/kg i.p. 10 days before autopsy) and calcein (20 mg/kg i.p. 3 days before autopsy). The method is based on permanent binding of tetracycline into growing bone and its detection by fluorescence (Peng et al, 1994).
The mechanical testing of bones was carried out by materials testing machine, constructed in-house at Oulu University (Technical Services Department of the Medical Faculty). The testing machine is based on lever arm principle. One end of a steel lever is fixed. […] Compressive force is measured by a temperature-compensated force sensor, which is attached to the stationary part of the compression stage. […]
The maximal load on the femoral neck was measured by the cantilever bending test. […]

Series [2] relates to ovariectomized rats. The following applies: 3.0 mg/kg peroral daily, 4 weeks, ovariectomized rats (Sham 0.497 ± 0.103; Ovariectomized 0.099 ± 0.016).
Series [3] relates to ovariectomized rats. Kind of series: Ash weight of tibial epiphyses in ovariectomized rats after 4 weeks dosing. Type of series: in vivo. As to conditions: 3.0 mg/kg p.o., beginning one week after ovariectomy (Sham 34.0 ± 2.9; OVX 32.2 ± 2.8), * = p < 0.05 vs ovariectomized.
From the text: as §1

Series [4] concerns ovariectomized (OVX) rats. The series is described as follows: Serum cholesterol level in ovariectomized (OVX) rats after 4 weeks dosing. Type of series: in vivo, rat. The following applies: for Cholesterol level (mmol/1) in serum: OVX rat, n=8 (Sham 3.8 ± 0.4; OVX 4.6 ± 0.7); for Effect on cholesterol (in words): summary statement referring to Table 4.
From the text: as §1

[5] abbreviates: read-out: Maximal Cell Kill (% fraction of dead cells), With estradiol (E2).
[6] abbreviates: read-out: Maximal Cell Kill (% fraction of dead cells), Without estradiol (E2).
The mark [7] stands for this setting: summary statement referring to Table 2.

Read-outs that look alike come from different tables or passages of the source.

On to `CN(C)CCOc1ccc(/C(=C(/CCCl)c2ccccc2)c2ccc(F)cc2)cc1` [No. 1, (E)-(2-{4-[4-Chloro-1-(4-fluorophenyl)-2-phenylbut-1-enyl]phenoxy}ethyl)-dimethylamine], for which, in the series on immature female rats (Table 3), the “Estrogenic action in vivo (in words)” value is “weak estrogen in vivo”. Also, in the series on immature female rats (dose 3–5 mg/kg), the “Estrogen antagonism (% inhibition of estradiol) Given with estradiol” value is given as 26 % inhibition of estradiol and the “Uterotropic effect (% of estradiol) Given without estradiol” value was 42 % of estradiol. In addition, in the series on immature female rats (dose 10–50 mg/kg), the “Estrogen antagonism (% inhibition of estradiol) Given with estradiol” value is 31 % inhibition of estradiol and the “Uterotropic effect (% of estradiol) Given without estradiol” value was 74 % of estradiol. In the series on MCF-7 cells, the inhibition at 1 µM was 8% and the Emax is 1%. Moreover, in the series on MCF-7 cells (setting [5]), the cytotoxicity at 10 µM worked out at 100%. For the same molecule, in the series on MCF-7 cells (setting [6]), the cytotoxicity at 10 µM turned out to be 100%. Besides, in the series on MCF-7 cells (Table 2), the “Estrogenic action in vitro (in words)” value was “no estrogenic action in vitro” and the “Kill of MCF-7 cells (in words)” value is given as “kill MCF-7 cells (human breast cancer cells) effectively”. Also, in the series on MCF-7 cells (setting [7]), the “Hormonal activity (in words)” value is recorded as “weak hormonal activity”.
As for `CN(C)CCOc1ccc(/C(=C(/CCCl)c2ccccc2)c2ccc(Cl)cc2)cc1` [No. 3, (E)-(2-{4-[4-Chloro-1-(4-chlorophenyl)-2-phenylbut-1-enyl]phenoxy}-ethyl)dimethylamine], the “Maximal load (N) of femoral neck” value in the series with ovariectomized rats [1] is 92.5±11.1* N. Moreover, the “Uterine size” value in the series with ovariectomized rats [2] is on record as 0.140 ± 0.006 g. For the same molecule, the “Estrogen antagonism (% inhibition of estradiol) Given with estradiol” value with immature female rats (dose 3–5 mg/kg) is 65 % inhibition of estradiol; with immature female rats (dose 10–50 mg/kg), 38 % inhibition of estradiol. Also, the “Uterotropic effect (% of estradiol) Given without estradiol” value with immature female rats (dose 3–5 mg/kg) is recorded as 44 % of estradiol; in the series with immature female rats (dose 10–50 mg/kg), 54 % of estradiol. Also, in the series with ovariectomized rats [3], the “Ash weight (mg) of tibial epiphyses” value is given as 36.0±3.4* mg. The inhibition at 1 µM in the series on MCF-7 cells worked out at 1%. For the same molecule, the Emax with MCF-7 cells amounted to 1%. The cytotoxicity at 10 µM with MCF-7 cells (setting [5]) is 94%; with MCF-7 cells (setting [6]), 100%. Also, in the series on MCF-7 cells (Table 2), the “Kill of MCF-7 cells (in words)” value is given as “kill MCF-7 cells (human breast cancer cells) effectively”. Besides, in the series with MCF-7 cells (setting [7]), the “Hormonal activity (in words)” value is “weak hormonal activity”. Further, in the series on MCF-7 cells (summary statement referring to Tables 2, 3 and 4), the “Estrogenic and antiestrogenic action (in words)” value is “weak estrogenic and no antiestrogenic action”. Moreover, the “Cholesterol level (mmol/1) in serum” value in series [4] (3 mg/kg, 4 weeks dosing) is reported as 3.1 ± 0.4 mmol/1. In addition, the “Effect on ovariectomy-induced increase of serum cholesterol level (in words)” value in series [4] (OVX rats, 4 weeks dosing) is “can prevent this increase even at very low dose and decrease the level below the sham operated level”. Further, the “Effect on cholesterol (in words)” value in series [4] is “decrease cholesterol”.
Consider `CN(C)CCOc1cccc(/C(=C(/CCCl)c2ccccc2)c2ccccc2)c1` [No. 33, (Z)-{2-[3-(4-Chloro-1,2-diphenylbut-1-enyl)phenoxy]ethyl}dimethylamine], for which the inhibition at 1 µM in the series with MCF-7 cells came out at 58%. For the same molecule, the cytotoxicity at 10 µM was found to be 80% in the series on MCF-7 cells (setting [5]) and 0% with MCF-7 cells (setting [6]). Besides, the “Cytotoxic action (in words)” value with MCF-7 cells (setting [7]) was “weak”. Also, the “Effect on cholesterol (in words)” value in series [4] is “decrease cholesterol”.
On to `OCCCOc1ccc(/C(=C(/CCCl)c2ccccc2)c2ccccc2)cc1` [No. 35, (Z)-3-[4-(4-Chloro-1,2-diphenylbut-1-enyl)phenoxy]propan-1-ol], for which the “Estrogen antagonism (% inhibition of estradiol) Given with estradiol” value with immature female rats (dose 3–5 mg/kg) is listed as 35 % inhibition of estradiol; with immature female rats (dose 10–50 mg/kg) it was 32 % inhibition of estradiol. The “Uterotropic effect (% of estradiol) Given without estradiol” value is recorded as 43 % of estradiol in the series with immature female rats (dose 3–5 mg/kg) and 66 % of estradiol in the series with immature female rats (dose 10–50 mg/kg). Besides, the inhibition at 1 µM with MCF-7 cells stood at 14%. In addition, the cytotoxicity at 10 µM in the series with MCF-7 cells (setting [5]) and in the series with MCF-7 cells (setting [6]) was 50% in each case.
Regarding `OCCOc1ccc(/C(=C(/CCCl)c2ccc(O)cc2)c2ccccc2)cc1` [No. 42, (Z)-4-{1-(2-Chloroethyl)-2-[4-(2-hydroxyethoxy)phenyl]-2-phenylvinyl}phenol], in the series on MCF-7 cells, the inhibition at 1 µM was 13% and the Emax came to 9%. For the same molecule, the cytotoxicity at 10 µM with MCF-7 cells (setting [5]) amounted to 54%. Besides, in the series with MCF-7 cells (setting [6]), the cytotoxicity at 10 µM turned out to be 23%.
On the same counts, the results for `OCCOc1ccc(/C(=C(\CCCl)c2ccc(O)cc2)c2ccccc2)cc1` [No. 43, (E)-4-{1-(2-Chloroethyl)-2-[4-(2-hydroxyethoxy)phenyl]-2-phenylvinyl}phenol] are 6%, 78%, 22% and 80%.
Regarding `O=C(c1ccc(OCCN2CCCCC2)cc1)c1c(-c2ccc(O)cc2)sc2cc(O)ccc12` [Raloxifene, reference compound], the “Maximal load (N) of femoral neck” value with ovariectomized rats [1] is on record as 84.2 ± 18.4* N. Further, the “Uterine size” value in the series on ovariectomized rats [2] was 0.141 ± 0.021 g. Moreover, in the series with immature female rats (dose 3–5 mg/kg), the “Estrogen antagonism (% inhibition of estradiol) Given with estradiol” value is on record as 90 % inhibition of estradiol and the “Uterotropic effect (% of estradiol) Given without estradiol” value is 11 % of estradiol. For the same molecule, in the series with immature female rats (dose 10–50 mg/kg), the “Estrogen antagonism (% inhibition of estradiol) Given with estradiol” value was 92 % inhibition of estradiol and the “Uterotropic effect (% of estradiol) Given without estradiol” value is reported as 13 % of estradiol. In addition, the “Ash weight (mg) of tibial epiphyses” value in the series on ovariectomized rats [3] came to 34.9 ± 3.5 mg.
On to `CC/C(=C(\c1ccccc1)c1ccc(OCCN(C)C)cc1)c1ccccc1` [Tamoxifen, reference compound], for which, in the series on immature female rats (dose 3–5 mg/kg), the “Estrogen antagonism (% inhibition of estradiol) Given with estradiol” value is 51 % inhibition of estradiol and the “Uterotropic effect (% of estradiol) Given without estradiol” value is 44 % of estradiol. In addition, in the series with immature female rats (dose 10–50 mg/kg), the “Estrogen antagonism (% inhibition of estradiol) Given with estradiol” value is 58 % inhibition of estradiol and the “Uterotropic effect (% of estradiol) Given without estradiol” value is 51 % of estradiol. Moreover, in the series on MCF-7 cells, the inhibition at 1 µM is 43% and the Emax was found to be 31%. Moreover, the cytotoxicity at 10 µM in the series with MCF-7 cells (setting [5]) was 100%. In addition, the cytotoxicity at 10 µM with MCF-7 cells (setting [6]) stood at 100%.
In the case of `CN(C)CCOc1ccc(/C(=C(/CCCl)c2ccccc2)c2ccccc2)cc1` [Toremifene, 4-chloro-1,2-diphenyl-1-[4-[2-(N,N-dimethylamino)ethoxy]phenyl]-1-butene, Z-isomer, reference compound], in the series with immature female rats (dose 3–5 mg/kg), the “Estrogen antagonism (% inhibition of estradiol) Given with estradiol” value was 45 % inhibition of estradiol and the “Uterotropic effect (% of estradiol) Given without estradiol” value is reported as 26 % of estradiol. Further, in the series with immature female rats (dose 10–50 mg/kg), the “Estrogen antagonism (% inhibition of estradiol) Given with estradiol” value is recorded as 58 % inhibition of estradiol and the “Uterotropic effect (% of estradiol) Given without estradiol” value is given as 44 % of estradiol. In addition, in the series with MCF-7 cells, the inhibition at 1 µM was 44% and the Emax was found to be 37%. Also, the cytotoxicity at 10 µM in the series on MCF-7 cells (setting [5]) was 100%. Besides, in the series with MCF-7 cells (setting [6]), the cytotoxicity at 10 µM came to 100%.
In the case of `C[C@]12CC[C@@H]3c4ccc(O)cc4CC[C@H]3[C@@H]1CC[C@@H]2O` [estradiol, reference compound], the “Cholesterol level (mmol/1) in serum” value in series [4] (3 µg/kg, 4 weeks dosing) came to 4.0 ± 0.4 mmol/1.
